# Experimental data reported in patent US7470684B2, “Spiropiperidine derivatives as NK3 antagonists” (Hoffmann-La Roche Inc., priority 2007, dated 2008).
# pKi: −log10 of the molar value.
# Target: T1, human NK3 receptor (Homo sapiens, UniProt P29371)
# T1 construct: expressed in transfected cells; host or cells: HEK293 cells, transiently transfected; membranes
# T1 sequence (P29371 1-465): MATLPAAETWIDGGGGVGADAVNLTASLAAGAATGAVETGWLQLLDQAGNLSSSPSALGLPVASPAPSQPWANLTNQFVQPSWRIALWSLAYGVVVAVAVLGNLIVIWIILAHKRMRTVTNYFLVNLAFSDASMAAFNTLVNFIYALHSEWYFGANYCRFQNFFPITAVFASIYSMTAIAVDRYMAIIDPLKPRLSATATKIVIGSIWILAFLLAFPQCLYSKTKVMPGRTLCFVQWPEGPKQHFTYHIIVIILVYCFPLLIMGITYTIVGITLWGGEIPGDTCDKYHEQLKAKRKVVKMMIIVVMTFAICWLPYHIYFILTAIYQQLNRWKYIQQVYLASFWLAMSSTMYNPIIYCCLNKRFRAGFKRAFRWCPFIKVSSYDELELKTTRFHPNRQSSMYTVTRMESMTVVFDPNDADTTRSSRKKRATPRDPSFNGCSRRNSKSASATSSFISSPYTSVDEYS
# Test: [3H]SR142801 competition binding assay
# Conditions: not given
# Description: [^3H]SR142801 Competition Binding Assay
# hNK3 receptor binding experiment were performed using [^3H]SR142801 (Catalog No. TRK1035, specific activity: 74.0 Ci/mmol, Amersham, GE Healthcare UK limited, Buckinghamshire, UK) and membrane isolated from HEK293 cells transiently expressing recombinant human NK3 receptor. After thawing, the membrane homogenates were centrifuged at 48,000×g for 10 min at 4° C., the pellets were resuspended in the 50 mM Tris-HCl, 4 mM MnCl2, 1 μM phosphoramidon, 0.1% BSA binding buffer at pH 7.4 to a final assay concentration of 5 μg protein/well. For inhibition experiments, membranes were incubated with [^3H]SR142801 at a concentration equal to KD value of radioligand and 10 concentrations of the inhibitory compound (0.0003-10 μM) (in a total reaction volume of 500 μl) for 75 min at room temperature (RT). At the end of the incubation, membranes were filtered onto unitfilter (96-well white microplate with bonded GF/C filter preincubated 1 h in 0.3% PEI+0.3% BSA, Packard BioScience, Meriden, Conn.) with a Filtermate 196 harvester (Packard BioScience) and washed 4 times with ice-cold 50 mM Tris-HCl, pH 7.4 buffer. Nonspecific binding was measured in the presence of 10 μM SB222200 for both radioligands. The radioactivity on the filter was counted (5 min) on a Packard Top-count microplate scintillation counter with quenching correction after addition of 45 μl of microscint 40 (Canberra Packard S.A., Zürich, Switzerland) and shaking for 1 h. Inhibition curves were fitted according to the Hill equation: y=100/(1+(x/IC50)^nH), where nH=slope factor using Excel-fit 4 software (Microsoft). IC50 values were derived from the inhibition curve and the affinity constant (Ki) values were calculated using the Cheng-Prussoff equation Ki=IC50/(1+[L]/KD) where [L] is the concentration of radioligand and KD is its dissociation constant at the receptor, derived from the saturation isotherm. All experiments were performed in duplicate and the mean±standard error (SEM) of the individual Ki values was calculated.
row,SMILES,pKi
1,"CN1C(=O)OC2(CCN(CCC(C(=O)NC(c3ccc(Cl)cc3)c3nccn3C)c3ccc(Cl)c(Cl)c3)CC2)c2cc(F)ccc21 (stereo not drawn) [Example 88, N-[(4-chlorophenyl)(1-methyl-1H-imidazol-2-yl)methyl]-2-(3,4-dichlorophenyl)-4-(6-fluoro-1-methyl-2-oxo-1,2-dihydro-1′H-spiro[3,1-benzoxazine-4,4′-piperidin]-1′-yl)butanamide]",7.14
2,"CN(CCc1ccccc1)C(=O)C(CCN1CCC2(CC1)OC(=O)N(C)c1ccc(F)cc12)c1ccc(Cl)c(Cl)c1 (stereo not drawn) [Example 90, 2-(3,4-dichlorophenyl)-4-(6-fluoro-1-methyl-2-oxo-1,2-dihydro-1′H-spiro[3,1-benzoxazine-4,4′-piperidin]-1′-yl)-N-metyl-N-(2-phenylethyl)butanamide]",8.10
3,"CN1C(=O)OC2(CCN(CCC(C(=O)NCc3ccc(-n4cccn4)cc3)c3ccc(Cl)c(Cl)c3)CC2)c2cc(F)ccc21 (stereo not drawn) [Example 94, 2-(3,4-dichlorophenyl)-4-(6-fluoro-1-methyl-2-oxo-1,2-dihydro-1′H-spiro[3,1-benzoxazine-4,4′-piperidin]-1′-yl)-N-[4-(1H-pyrazol-1-yl)benzyl]butanamide]",7.06
4,"CN(Cc1ccc(-c2ccncc2)cc1)C(=O)C(CCN1CCC2(CC1)OC(=O)N(C)c1ccc(F)cc12)c1ccc(Cl)c(Cl)c1 (stereo not drawn) [Example 97, 2-(3,4-dichlorophenyl)-4-(6-fluoro-1-methyl-2-oxo-1,2-dihydro-1′H-spiro[3,1-benzoxazine-4,4′-piperidin]-1′-yl)-N-methyl-N-(4-pyridin-4-ylbenzyl)butanamide]",8.03

# Same assay, conditions: hNK3 Ki, [3H]SR142801 displacement, membranes of HEK293 cells transiently expressing recombinant human NK3 receptor
row,SMILES,pKi
1,"O=C1Nc2ccc(F)cc2C2(CCN(CCC(C(=O)NCc3cccc(OC(F)(F)F)c3)c3ccc(Cl)c(Cl)c3)CC2)O1 (stereo not drawn) [Example 78, 2-(3,4-dichlorophenyl)-4-(6-fluoro-2-oxo-1,2-dihydro-1′H-spiro[3,1-benzoxazine-4,4′-piperidin]-1′-yl)-N-[(3-trifluoromethoxy)benzyl]butanamide]",7.81
2,"CN(Cc1cccc(C(F)(F)F)c1)C(=O)C(CCN1CCC2(CC1)OC(=O)Nc1ccc(F)cc12)c1ccc(Cl)c(Cl)c1 (stereo not drawn) [Example 79, 2-(3,4-dichlorophenyl)-4-(6-fluoro-2-oxo-1,2-dihydro-1′H-spiro[3,1-benzoxazine-4,4′-piperidin]-1′-yl)-N-methyl-N-[3-(trifluoromethyl)benzyl]butanamide]",8.18
3,"CN(Cc1ccc(F)cc1)C(=O)C(CCN1CCC2(CC1)OC(=O)Nc1ccc(F)cc12)c1ccc(Cl)c(Cl)c1 (stereo not drawn) [Example 80, 2-(3,4-dichlorophenyl)-N-(4-fluorobenzyl)-4-(6-fluoro-2-oxo-1,2-dihydro-1′H-spiro[3,1-benzoxazine-4,4′-piperidin]-1′-yl)-N-methylbutanamide]",8.36
4,"O=C1Nc2ccc(F)cc2C2(CCN(CCC(C(=O)NCc3ccc(F)cc3)c3ccc(Cl)c(Cl)c3)CC2)O1 (stereo not drawn) [Example 81, 2-(3,4-dichlorophenyl)-N-(4-fluorobenzyl)-4-(6-fluoro-2-oxo-1,2-dihydro-1′H-spiro[3,1-benzoxazine-4,4′-piperidin]-1′-yl)-butanamide]",7.94
5,"COc1ccc(CNC(=O)C(CCN2CCC3(CC2)OC(=O)Nc2ccc(F)cc23)c2ccc(Cl)c(Cl)c2)cc1 (stereo not drawn) [Example 82, 2-(3,4-dichlorophenyl)-4-(6-fluoro-2-oxo-1,2-dihydro-1′H-spiro[3,1-benzoxazine-4,4′-piperidin]-1′-yl)-N-(4-methoxybenzyl)butanamide]",7.71
6,"O=C1Nc2ccc(F)cc2C2(CCN(CCC(C(=O)NCc3cccc(C(F)(F)F)c3)c3ccc(Cl)c(Cl)c3)CC2)O1 (stereo not drawn) [Example 83, 2-(3,4-dichlorophenyl)-4-(6-fluoro-2-oxo-1,2-dihydro-1′H-spiro[3,1-benzoxazine-4,4′-piperidin]-1′-yl)-N-[3-(trifluoromethyl)benzyl]butanamide]",7.89
7,"O=C1Nc2ccc(F)cc2C2(CCN(CCC(C(=O)NCc3ccc(-c4csnn4)cc3)c3ccc(Cl)c(Cl)c3)CC2)O1 (stereo not drawn) [Example 84, 2-(3,4-dichlorophenyl)-4-(6-fluoro-2-oxo-1,2-dihydro-1′H-spiro[3,1-benzoxazine-4,4′-piperidin]-1′-yl)-N-[4-(1,2,3-thiadiazol-4-yl)benzyl]butanamide]",7.94
8,"O=C1Nc2ccc(F)cc2C2(CCN(CCC(C(=O)NCc3ccc(OC(F)(F)F)cc3)c3ccc(Cl)c(Cl)c3)CC2)O1 (stereo not drawn) [Example 85, 2-(3,4-dichlorophenyl)-4-(6-fluoro-2-oxo-1,2-dihydro-1′H-spiro[3,1-benzoxazine-4,4′-piperidin]-1′-yl)-N-[4-(trifluoromethoxy)benzyl]butanamide]",7.16
9,"N#Cc1ccc(CNC(=O)C(CCN2CCC3(CC2)OC(=O)Nc2ccc(F)cc23)c2ccc(Cl)c(Cl)c2)cc1 (stereo not drawn) [Example 86, N-(4-cyanobenzyl)-2-(3,4-dichlorophenyl)-4-(6-fluoro-2-oxo-1,2-dihydro-1′H-spiro[3,1-benzoxazine-4,4′-piperidin]-1′-yl)butanamide]",7.92
10,"CN1C(=O)OC2(CCN(CCC(C(=O)NCc3ccc(Cl)cc3Cl)c3ccc(Cl)c(Cl)c3)CC2)c2cc(F)ccc21 (stereo not drawn) [Example 87, N-(2,4-dichlorobenzyl)-2-(3,4-dichlorophenyl)-4-(6-fluoro-1-methyl-2-oxo-1,2-dihydro-1′H-spiro[3,1-benzoxazine-4,4′-piperidin]-1′-yl)butanamide]",8.68
11,"CN(Cc1ccccc1)C(=O)C(CCN1CCC2(CC1)OC(=O)N(C)c1ccc(F)cc12)c1ccc(Cl)c(Cl)c1 (stereo not drawn) [Example 89, N-benzyl-2-(3,4-dichlorophenyl)-4-(6-fluoro-1-methyl-2-oxo-1,2-dihydro-1′H-spiro[3,1-benzoxazine-4,4′-piperidin]-1′-yl)-N-methyl-butanamide]",9.10
12,"CN1C(=O)OC2(CCN(CCC(C(=O)NCc3ccccc3OC(F)(F)F)c3ccc(Cl)c(Cl)c3)CC2)c2cc(F)ccc21 (stereo not drawn) [Example 91, 2-(3,4-dichlorophenyl)-4-(6-fluoro-1-methyl-2-oxo-1,2-dihydro-1′H-spiro[3,1-benzoxazine-4,4′-piperidin]-1′-yl)-N-[2-(trifluoromethoxy)benzyl]butanamide]",8.19
13,"CN1C(=O)OC2(CCN(CCC(C(=O)NCc3cccc(OC(F)F)c3)c3ccc(Cl)c(Cl)c3)CC2)c2cc(F)ccc21 (stereo not drawn) [Example 92, 2-(3,4-dichlorophenyl)-N-[3-(difluoromethoxy)benzyl]-4-(6-fluoro-1-methyl-2-oxo-1,2-dihydro-1′H-spiro[3,1-benzoxazine-4,4′-piperidin]-1′-yl)butanamide]",8.55
14,"CN(Cc1ccc(C(F)(F)F)cc1)C(=O)C(CCN1CCC2(CC1)OC(=O)N(C)c1ccc(F)cc12)c1ccc(Cl)c(Cl)c1 (stereo not drawn) [Example 93, 2-(3,4-dichlorophenyl)-4-(6-fluoro-1-methyl-2-oxo-1,2-dihydro-1′H-spiro[3,1-benzoxazine-4,4′-piperidin]-1′-yl)-N-methyl-N-[4-(trifluoromethyl)benzyl]butanamide]",9.22
15,"CN(Cc1ccc(N2CCOCC2)cc1)C(=O)C(CCN1CCC2(CC1)OC(=O)N(C)c1ccc(F)cc12)c1ccc(Cl)c(Cl)c1 (stereo not drawn) [Example 95, 2-(3,4-dichlorophenyl)-4-(6-fluoro-1-methyl-2-oxo-1,2-dihydro-1′H-spiro[3,1-benzoxazine-4,4′-piperidin]-1′-yl)-N-methyl-N-(4-morpholin-4-ylbenzyl)butanamide]",7.54
16,"COc1ccc(CN(C)C(=O)C(CCN2CCC3(CC2)OC(=O)N(C)c2ccc(F)cc23)c2ccc(Cl)c(Cl)c2)cc1F (stereo not drawn) [Example 99, 2-(3,4-dichlorophenyl)-N-(3-fluoro-4-methoxybenzyl)-4-(6-fluoro-1-methyl-2-oxo-1,2-dihydro-1′H-spiro[3,1-benzoxazine-4,4′-piperidin]-1′-yl)-N-methyl-butanamide]",8.62
17,"COc1cc(CN(C)C(=O)C(CCN2CCC3(CC2)OC(=O)N(C)c2ccc(F)cc23)c2ccc(Cl)c(Cl)c2)ccc1OC(F)F (stereo not drawn) [Example 100, 2-(3,4-dichlorophenyl)-N-[4-(difluoromethoxy)-3-methoxybenzyl]-4-(6-fluoro-1-methyl-2-oxo-1,2-dihydro-1′H-spiro[3,1-benzoxazine-4,4′-piperidin]-1′-yl)-N-methyl-butanamide]",8.59
